This is an account of results in PubChem BioAssay AID485340 (Southern Research Specialized Biocontainment Screening …, 2010).

Active and inactive are the calls of the source. How the calls were made is not given here.

The assay deals with M. tuberculosis growth, meropenem IC50 shift with compound. As to the kind of experiment: confirmation, meropenem IC50 shift (AID 485340).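 Further: growth read after one week of culture plus overnight Alamar Blue.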
Setting [1] is: compound alone IC50 vs Mtb, compound dose (near its own IC50) 4.69 µM.
Where [2] appears, read: compound dose (near its own IC50) 4.69 µM.
The mark [3] stands for this setting: compound alone IC50 vs Mtb, compound dose (near its own IC50) 9.38 µM.
Where [4] appears, read: compound dose (near its own IC50) 9.38 µM.
[5] abbreviates: compound alone IC50 vs Mtb, compound dose (near its own IC50) 2.35 µM.
Where [6] appears, read: compound dose (near its own IC50) 2.35 µM.
The mark [7] stands for this setting: compound alone IC50 vs Mtb, compound dose (near its own IC50) 1.18 µM.
[8] abbreviates: compound dose (near its own IC50) 1.18 µM.

Broadly, the IC50 is the midpoint of a concentration-inhibition curve. On to `CSc1nc2cc3c(cc2n1C(=O)c1ccc(C)cc1)OCCO3`, for which the IC50 is 5.15 µM under setting [1] and 4.06 µM (inactive) under setting [2].

`CC(=O)Nc1cccc(/C(C)=N/NC(N)=S)c1`: the IC50 reads like this: under setting [3], 7.9 µM; under setting [4], 2.08 µM (inactive).

For the compound `O=C(CCCCCN1C(=O)c2cccc([N+](=O)[O-])c2C1=O)Nc1ccccc1F`, the IC50 runs as follows: under setting [3], 10.2 µM; under setting [4], 1.08 µM (inactive).

As for `COC(=O)c1c(-c2ccc(OC)cc2)oc2ccc(-c3cc(OC)c(OC)c(OC)c3)cc12`, the IC50 runs as follows: under setting [3], 7.72 µM; under setting [4], 6.1 µM (inactive).

For the compound `c1ccc(-c2cc(N3CCOCC3)nc3ccccc23)cc1`, the IC50 under setting [5] turned out to be 2.78 µM and the IC50 under setting [6] was 3.41 µM (inactive).

Take `O=C(N/N=C/c1cc([N+](=O)[O-])ccc1O)C1CC1`: the IC50 runs as follows: under setting [1], 4.14 µM; under setting [2], 5.6 µM (inactive).

As to `CC(C)=CCC/C(C)=C/C=N/NC(=O)c1ccc([N+](=O)[O-])cc1`, the IC50 is 1.02 µM under setting [7] and 3.4 µM (inactive) under setting [8].

With `N/C(=N\c1nc2ccccc2o1)NC(=O)c1ccccc1Br`, the IC50 is, setting by setting: (compound alone IC50 vs Mtb, compound dose (near its own IC50) 0.15 µM) 0.2 µM; (compound dose (near its own IC50) 0.15 µM) 7.58 µM (inactive).

For the compound `COc1ccc(Cl)cc1NC(=O)C/C(C)=N/NC(=O)CC#N`, the IC50 under setting [3] came out at 7.99 µM and the IC50 under setting [4] was 2.83 µM (inactive).

As for `O=C(COC(=O)C1CC1)NCc1ccccc1Cl`, the IC50 is 1.37 µM under setting [7] and 2.59 µM (inactive) under setting [8].

Regarding `C[C@H](NC(=O)c1[nH]cnc1C(=O)Nc1cccc(Cl)c1)c1ccccc1`, the concentration for half-maximal inhibition (IC50) is 3.59 µM under setting [1] and less than 0.52 µM under setting [2].

As to `COc1cccc(/C=N/NC(=O)NC23CC4CC(CC(C4)C2)C3)c1O`, the IC50 was 2.93 µM under setting [5] and 5.23 µM (inactive) under setting [6].

In the case of `COc1cc(C(=O)Oc2ccccc2/C=N/NC(=O)c2ccc(C)c(Cl)c2)cc(OC)c1OC`, the half-maximal inhibitory concentration (IC50) was 1.96 µM under setting [5] and 4.26 µM (inactive) under setting [6].

Take `Cc1cc(/C=N/NC(=O)CC#N)c(C)n1-c1ccc([N+](=O)[O-])cc1`: the IC50 was 10.2 µM under setting [3] and 4.08 µM (inactive) under setting [4].

In the case of `O=C(OC(C(=O)Nc1ccc(Cl)cc1C(F)(F)F)c1ccccc1)C1=COCCO1` (stereo not given), the 50% inhibitory concentration (IC50) runs as follows: under setting [7], 1.23 µM; under setting [8], 7.47 µM (inactive).

As to `N=C1C(c2nc3ccccc3[nH]2)=C(O)CN1c1ccc(F)cc1`, the IC50 is 7.73 µM under setting [3] and 4.04 µM (inactive) under setting [4].

Consider `C/C(=N\NC(=S)Nc1ccccc1C)c1ccc(O)cc1`, for which the IC50 is, setting by setting: (compound alone IC50 vs Mtb, compound dose (near its own IC50) 0.59 µM) 0.552 µM; (compound dose (near its own IC50) 0.59 µM) 7.22 µM (inactive).

As for `Cc1ccc(Cn2c(NC(=O)c3ccco3)nc3ccccc32)cc1`, the half-inhibitory concentration (IC50) by setting is: under setting [5], 2.62 µM; under setting [6], 4.24 µM (inactive).

In the case of `COc1ccc(-c2cc(C(N)=O)nc(N3CCCCCC3)n2)cc1`, the IC50 is 3.95 µM under setting [1] and 4.05 µM (inactive) under setting [2].

In the case of `CSc1ncnc2c1ccn2CC(=O)Nc1ccc(C)c(C)c1`, the IC50 reads like this: under setting [3], 8.44 µM; under setting [4], 7.31 µM (inactive).

As for `COc1c(F)c(F)c(C(=O)Nc2c(C)cc(Br)cc2C)c(F)c1F`, the IC50 by setting is: under setting [1], 4.58 µM; under setting [2], 5.02 µM (inactive).

Regarding `C/C(=N\NC(=O)c1cc(Br)ccc1O)c1ccccn1`, the IC50 reads like this: under setting [1], 3.88 µM; under setting [2], 1.73 µM (inactive).

On to `CCOc1ccc2nc(NC(=O)c3cnccn3)sc2c1`, for which the IC50 was 4.07 µM under setting [1] and 4.08 µM (inactive) under setting [2].

`COc1cccc(-c2ccc(-c3noc(-c4ccccc4F)n3)c(OC)n2)c1`: the half-maximal inhibitory concentration (IC50) is 9.65 µM under setting [3] and 4.08 µM (inactive) under setting [4].

With `CCOC(=O)COc1nc(-c2ccc(Cl)cc2)cc(-c2ccco2)c1C#N`, the IC50 by setting is: under setting [1], 3.82 µM; under setting [2], 7.14 µM (inactive).

Turning to `c1ccc(OCc2nnc(-c3ccccc3)o2)cc1`, the IC50 was 1.4 µM under setting [7] and 7.26 µM (inactive) under setting [8].

On to `CC(C)(C)c1ccc(C(=O)Oc2ccc3c(c2)OCC3=O)cc1`, for which the IC50 is, setting by setting: under setting [3], 8.64 µM; under setting [4], 4.92 µM (inactive).

Regarding `C[C@H](NC(=O)c1[nH]cnc1C(=O)Nc1ccc(Cl)cc1)C(=O)OC(C)(C)C`, the concentration for half-maximal inhibition (IC50) under setting [3] was 10.4 µM and the IC50 under setting [4] was 4.93 µM (inactive).

Take `O=C(COC(=O)C1CC1)c1c[nH]c2ccccc12`: the IC50 is 0.999 µM under setting [7] and 4.65 µM (inactive) under setting [8].

Regarding `O=C(COC(=O)C1=COCCO1)Nc1ccc2c(c1)OCO2`, the half-maximal inhibitory concentration (IC50) was 3.86 µM under setting [1] and 4.01 µM (inactive) under setting [2].

As to `C/C(=N\NC(=O)c1cc2c(s1)CCC(C)C2)c1ccc[nH]1` (stereo not given), the IC50 reads like this: under setting [1], 6.51 µM; under setting [2], 1.98 µM (inactive).

Regarding `O=C(CC12CC3CC(CC(C3)C1)C2)NCc1ccc(F)cc1`, the IC50 reads like this: under setting [3], 7.43 µM; under setting [4], 7.53 µM (inactive).

`Fc1ccc(-c2csc(NC(=S)Nc3ccccc3)n2)cc1`: the IC50 reads like this: under setting [3], 7.55 µM; under setting [4], 2.74 µM (inactive).

With `Cc1ccccc1OCC(=O)Nc1ccccc1N1CCCCC1`, the IC50 is 5.94 µM under setting [1] and 6.96 µM (inactive) under setting [2].

Regarding `Cc1ccc(-c2nc3[nH]c(=O)cc(NC(=O)C(C)C)n3n2)cc1`, the IC50 was 7.36 µM under setting [3] and 3.83 µM (inactive) under setting [4].
